This experiment addresses T1, CXCR4 receptors (Homo sapiens, UniProt P61073).
T1 construct: expressing endogenous CXCR4 receptors; endogenous in cells; host or cells: CCRF-CEM (human T lymphoblast cells)
Kind of experiment: CXCR4-CEM calcium flux assay, antagonist mode (inhibition of SDF-1α-induced calcium flux). It counts as cell-based. To be noted: inhibition of calcium flux induced by 4 nM SDF-1α in CCRF-CEM cells. The method, boiled down:
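CCRF-CEM cells were preincubated with compound (0.5% DMSO) for 25 min at room temperature, then stimulated with 4 nM SDF-1α. The resulting calcium flux was recorded by FDSS for 90 sec. Percent inhibition was calculated against an internal control compound, and background-corrected EC50 values were derived.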
For orientation: Calcium assays in cells follow changes in intracellular calcium, usually with a dye or a luminescent sensor.

The structures appear in SMILES notation.

T1 sequence (P61073 whole entry): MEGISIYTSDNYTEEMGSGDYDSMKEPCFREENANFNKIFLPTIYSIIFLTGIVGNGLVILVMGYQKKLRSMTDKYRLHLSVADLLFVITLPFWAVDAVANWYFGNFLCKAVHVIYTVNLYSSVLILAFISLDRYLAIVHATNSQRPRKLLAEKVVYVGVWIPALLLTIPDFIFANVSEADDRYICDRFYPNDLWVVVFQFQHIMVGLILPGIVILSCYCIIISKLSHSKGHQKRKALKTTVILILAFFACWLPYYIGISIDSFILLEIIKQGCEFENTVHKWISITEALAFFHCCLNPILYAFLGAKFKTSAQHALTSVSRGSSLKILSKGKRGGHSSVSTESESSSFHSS

Usually IC50 stands for the concentration needed to halve the response being measured. `CN(Cc1cn2c(N3CCNCC3)nc(Cl)cc2n1)[C@H]1CCCc2cccnc21` [Example 72, (S)—N-((7-Chloro-5-(piperazin-1-yl)imidazo[1,2-c]pyrimidin-2-yl)methyl)-N-methyl-5,6,7,8-tetrahydroquinolin-8-amine]: the IC50 is 0.33 µM.
As for `CN(Cc1cn2c(N3CCn4cnnc4C3)nccc2n1)[C@H]1CCCc2cccnc21` [Example 82, (S)-N-((5-(5,6-dihydro-[1,2,4]triazolo[4,3-a]pyrazin-7(8H)-yl)imidazo[1,2-c]pyrimidin-2-yl)methyl)-N-methyl-5,6,7,8-tetrahydroquinolin-8-amine], the IC50 came to 3.78 µM.

For the origin of these results see patent publication US10450318B2, “CXCR4 receptor antagonists” (BRISTOL-MYERS SQUIBB COMPANY, priority 2015, dated 2019).
